# In ChEMBL document CHEMBL3244053, “Structural modification study of bis(substituted aminoalkylamino)anthraquinones. An evaluation of the relationship of the [2-[(2-hydroxyethyl)amino]ethyl]amino side chain with antineoplastic activity” (1979):
# Active and inactive are the calls of the source. No cut-off for these calls is given here.
# Legend:
# B16 [1] = experiment: Antineoplastic activity against mouse B16 cells allografted in BDF1 mouse assessed as survival at 200 mg/kg qd for 9 days; type: functional, organism-based; parameters: dose 200 mg/kg
# B16 [2] = experiment: Antineoplastic activity against mouse B16 cells allografted in BDF1 mouse at 200 mg/kg qd for 9 days relative to control; type: functional
# B16 [3] = experiment: Antineoplastic activity against mouse B16 cells allografted in BDF1 mouse assessed as survival at 100 mg/kg qd for 9 days; type: functional, organism-based; parameters: dose 100 mg/kg
# B16 [4] = experiment: Antineoplastic activity against mouse B16 cells allografted in BDF1 mouse at 100 mg/kg qd for 9 days relative to control; type: functional
# B16 [5] = experiment: Antineoplastic activity against mouse B16 cells allografted in BDF1 mouse assessed as survival at 50 mg/kg qd for 9 days; type: functional, organism-based; parameters: dose 50 mg/kg
# B16 [6] = experiment: Antineoplastic activity against mouse B16 cells allografted in BDF1 mouse at 50 mg/kg qd for 9 days relative to control; type: functional
# Colon 26 [7] = experiment: Antineoplastic activity against mouse Colon 26 cells allografted in CDF1 mouse assessed as survival at 20 mg/kg qd for 9 days; type: functional, organism-based; parameters: dose 20 mg/kg
# Colon 26 [8] = experiment: Antineoplastic activity against mouse Colon 26 cells allografted in CDF1 mouse at 20 mg/kg qd for 9 days relative to control; type: functional
# Colon 26 [9] = experiment: Antineoplastic activity against mouse Colon 26 cells allografted in CDF1 mouse assessed as survival at 80 mg/kg qd for 9 days; type: functional, organism-based; parameters: dose 80 mg/kg
# Colon 26 [10] = experiment: Antineoplastic activity against mouse Colon 26 cells allografted in CDF1 mouse at 80 mg/kg qd for 9 days relative to control; type: functional
# Colon 26 [11] = experiment: Antineoplastic activity against mouse Colon 26 cells allografted in CDF1 mouse assessed as survival at 40 mg/kg qd for 9 days; type: functional, organism-based; parameters: dose 40 mg/kg
# Colon 26 [12] = experiment: Antineoplastic activity against mouse Colon 26 cells allografted in CDF1 mouse at 40 mg/kg qd for 9 days relative to control; type: functional
# L1210 [13] = experiment: Antineoplastic activity against mouse L1210 cells allografted in CDF1 mouse assessed as survival at 160 mg/kg qd for 9 days; type: functional, organism-based; parameters: dose 160 mg/kg
# L1210 [14] = experiment: Antineoplastic activity against mouse L1210 cells allografted in CDF1 mouse at 160 mg/kg qd for 9 days relative to control; type: functional
# L1210 [15] = experiment: Antineoplastic activity against mouse L1210 cells allografted in CDF1 mouse assessed as survival at 80 mg/kg qd for 9 days; type: functional, organism-based; parameters: dose 80 mg/kg
# L1210 [16] = experiment: Antineoplastic activity against mouse L1210 cells allografted in CDF1 mouse at 80 mg/kg qd for 9 days relative to control; type: functional
# L1210 [17] = experiment: Antineoplastic activity against mouse L1210 cells allografted in CDF1 mouse assessed as survival at 40 mg/kg qd for 9 days; type: functional, organism-based; parameters: dose 40 mg/kg
# L1210 [18] = experiment: Antineoplastic activity against mouse L1210 cells allografted in CDF1 mouse at 40 mg/kg qd for 9 days relative to control; type: functional
# P388 [19] = experiment: Antineoplastic activity against mouse P388 cells allografted in CDF1 mouse assessed as survival at 80 mg/kg qd for 9 days; type: functional, organism-based; parameters: dose 80 mg/kg
# P388 [20] = experiment: Antineoplastic activity against mouse P388 cells allografted in CDF1 mouse at 80 mg/kg qd for 9 days relative to control; type: functional
# P388 [21] = experiment: Antineoplastic activity against mouse P388 cells allografted in CDF1 mouse assessed as survival at 40 mg/kg qd for 9 days; type: functional, organism-based; parameters: dose 40 mg/kg
# P388 [22] = experiment: Antineoplastic activity against mouse P388 cells allografted in CDF1 mouse at 40 mg/kg qd for 9 days relative to control; type: functional
# P388 [23] = experiment: Antineoplastic activity against mouse P388 cells allografted in CDF1 mouse assessed as survival at 30 mg/kg qd for 9 days; type: functional, organism-based; parameters: dose 30 mg/kg
# P388 [24] = experiment: Antineoplastic activity against mouse P388 cells allografted in CDF1 mouse at 30 mg/kg qd for 9 days relative to control; type: functional
# P388 [25] = experiment: Antineoplastic activity against mouse P388 cells allografted in CDF1 mouse assessed as survival at 6.25 mg/kg qd for 9 days; type: functional, organism-based; parameters: dose 6.25 mg/kg
# P388 [26] = experiment: Antineoplastic activity against mouse P388 cells allografted in CDF1 mouse at 6.25 mg/kg qd for 9 days relative to control; type: functional
# P388 [27] = experiment: Antineoplastic activity against mouse P388 cells allografted in CDF1 mouse assessed as survival at 12.5 mg/kg qd for 9 days; type: functional, organism-based; parameters: dose 12.5 mg/kg
# P388 [28] = experiment: Antineoplastic activity against mouse P388 cells allografted in CDF1 mouse at 12.5 mg/kg qd for 9 days relative to control; type: functional
# P388 [29] = experiment: Antineoplastic activity against mouse P388 cells allografted in CDF1 mouse at 50 mg/kg qd for 9 days relative to control; type: functional
# P388 [30] = experiment: Antineoplastic activity against mouse P388 cells allografted in CDF1 mouse at 100 mg/kg qd for 9 days relative to control; type: functional
# L1210 [31] = experiment: Antineoplastic activity against mouse L1210 cells allografted in CDF1 mouse at 25 mg/kg qd for 9 days relative to control; type: functional
# P388 [32] = experiment: Antineoplastic activity against mouse P388 cells allografted in CDF1 mouse assessed as survival at 50 mg/kg qd for 9 days; type: functional, organism-based; parameters: dose 50 mg/kg
# L1210 [33] = experiment: Antineoplastic activity against mouse L1210 cells allografted in CDF1 mouse assessed as survival at 25 mg/kg qd for 9 days; type: functional, organism-based; parameters: dose 25 mg/kg
# P388 [34] = experiment: Antineoplastic activity against mouse P388 cells allografted in CDF1 mouse assessed as survival at 100 mg/kg qd for 9 days; type: functional, organism-based; parameters: dose 100 mg/kg
structure (smiles),measurement,setting,value
CN(C)CCNc1ccc(O)c2c1C(=O)c1ccccc1C2=O,Activity,B16 [1],Active
same,T/C,B16 [2],156%
same,Activity,B16 [3],Active
same,T/C,B16 [4],145%
same,Activity,B16 [5],Active
same,T/C,B16 [6],110%
same,Activity,Colon 26 [7],Active
same,T/C,Colon 26 [8],104%
same,Activity,Colon 26 [9],Active
same,T/C,Colon 26 [10],115%
same,Activity,Colon 26 [11],Active
same,T/C,Colon 26 [12],135%
same,Activity,L1210 [13],Active
same,T/C,L1210 [14],139%
same,Activity,L1210 [15],Active
same,T/C,L1210 [16],122%
same,Activity,L1210 [17],Active
same,T/C,L1210 [18],107%
same,Activity,P388 [19],Active
same,T/C,P388 [20],153%
same,Activity,P388 [21],Active
same,T/C,P388 [22],124%
same,Activity,P388 [23],Active
same,T/C,P388 [24],100%
CN(C)CCC1=C(Cl)C(=O)c2ccccc2C1=O,Activity,P388 [25],Active
same,T/C,P388 [26],94%
same,Activity,P388 [27],Active
same,T/C,P388 [28],97%
O=C1C=C(NCCNCCO)C(=O)c2ccccc21,T/C,P388 [29],103%
same,T/C,P388 [30],93%
CCN(CC)CCC1=C(Cl)C(=O)c2ccccc2C1=O,Activity,P388 [25],Active
same,T/C,P388 [26],96%
same,Activity,P388 [27],Active
same,T/C,P388 [28],101%
OCCNCCNc1ccnc2cc(Cl)ccc12,T/C,L1210 [31],111%
same,Activity,P388 [32],Active
same,T/C,P388 [29],116%
same,Activity,B16 [3],Active
same,T/C,B16 [4],110%
same,Activity,B16 [5],Active
same,T/C,B16 [6],99%
same,Activity,L1210 [33],Active
same,Activity,P388 [34],Active
same,T/C,P388 [30],118%
